Reference: paper PMC6226504, “Ca^2+ efflux via plasma membrane Ca^2+-ATPase mediates chemotaxis in ascidian sperm” (Scientific Reports, 2018)

Molecular target: T1, plasma membrane Ca2+-ATPase (PMCA), Atp2b-var.b-mut3 (Ciona intestinalis, UniProt A0A3G9HPC9, R951A/H956A/H962A)
T1 construct: Atp2b-var.b-mut3, recombinant, in Sf9 cell membrane fraction
Experiment: quartz crystal microbalance (QCM), mutant compared with wild-type membranes
Format: binding

T1 sequence (A0A3G9HPC9 1-1165 R951A/H956A/H962A): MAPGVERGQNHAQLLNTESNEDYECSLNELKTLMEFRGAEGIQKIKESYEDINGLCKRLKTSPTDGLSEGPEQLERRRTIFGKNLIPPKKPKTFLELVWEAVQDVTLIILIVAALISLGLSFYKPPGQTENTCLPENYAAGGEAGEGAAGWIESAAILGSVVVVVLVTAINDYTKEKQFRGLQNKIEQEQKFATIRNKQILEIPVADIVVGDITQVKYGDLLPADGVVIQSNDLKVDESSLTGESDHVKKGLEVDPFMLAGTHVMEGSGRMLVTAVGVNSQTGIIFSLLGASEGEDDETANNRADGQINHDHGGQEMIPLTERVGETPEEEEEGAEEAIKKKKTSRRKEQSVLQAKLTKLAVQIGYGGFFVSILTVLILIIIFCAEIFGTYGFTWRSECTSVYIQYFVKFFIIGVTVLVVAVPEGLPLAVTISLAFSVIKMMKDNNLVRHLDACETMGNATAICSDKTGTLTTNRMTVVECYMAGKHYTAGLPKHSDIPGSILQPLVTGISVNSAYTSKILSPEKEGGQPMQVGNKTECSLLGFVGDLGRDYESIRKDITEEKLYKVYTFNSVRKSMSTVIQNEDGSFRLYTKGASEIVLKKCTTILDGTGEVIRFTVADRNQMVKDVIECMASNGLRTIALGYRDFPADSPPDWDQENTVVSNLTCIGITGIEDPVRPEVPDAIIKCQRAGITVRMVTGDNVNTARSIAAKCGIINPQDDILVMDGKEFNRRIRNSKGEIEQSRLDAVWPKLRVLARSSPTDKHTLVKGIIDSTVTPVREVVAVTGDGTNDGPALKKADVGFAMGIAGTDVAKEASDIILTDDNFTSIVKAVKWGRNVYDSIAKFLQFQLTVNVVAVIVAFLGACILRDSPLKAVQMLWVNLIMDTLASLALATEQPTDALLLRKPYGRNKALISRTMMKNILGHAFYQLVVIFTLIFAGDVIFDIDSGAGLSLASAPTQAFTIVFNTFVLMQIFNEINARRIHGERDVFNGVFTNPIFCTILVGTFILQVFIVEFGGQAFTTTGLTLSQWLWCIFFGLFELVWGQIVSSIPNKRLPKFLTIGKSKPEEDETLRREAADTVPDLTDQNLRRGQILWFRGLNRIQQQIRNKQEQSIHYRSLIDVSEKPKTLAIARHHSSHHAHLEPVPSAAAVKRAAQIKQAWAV

## C[C@@H](CCC[C@@H](C)[C@H]1CC[C@H]2[C@@H]3[C@H](O)C[C@H]4[C@@H](O)[C@H](OS(=O)(=O)O)CC[C@]4(C)[C@H]3CC[C@]12C)COS(=O)(=O)O [SAAF]
  quartz crystal microbalance (QCM), mutant compared with wild-type membranes: Atp2b-var.b-mut3 showed the same interaction compared to the wild-type
